Laboratory results reported in patent US4999199A, “Pharmaceutical formulations: liposomes incorporating aromatic polyene antibiotics” (priority 1988, dated 1991).

Columns and labels:
[1] = cited from earlier work
[2] = tested on: humans; conditions: given orally to humans; cited from earlier work
[3] = tested on: human red blood cells (RBC); assay: In vitro toxicity toward red blood cells (hemoglobin release, hemolysis); conditions: at 75 Mg/ml (so in the source); 20% human RBC, 45 minutes at 37° C.; hypotonic water = 100% lysis
Experimental: The samples were incubated for 45 minutes at 37° C., centrifuged at 10,000 xg for 20 minutes, and the hemoglobin content of the supernatant determined by its light absorbance. The release of hemoglobin by a hypotonic water solution was also measured and was considered to represent 100% lysis.

[4] = tested on: various fungi; assay: In vitro susceptibility experiments, candicidin compared with amphotericin B; assay type: cell-based; conditions: experiments in various laboratories including those of the present inventors
[5] = conventional formulations, parenteral; cited from earlier work

## candicidin
[1]
  water solubility: totally water insoluble
[2]
  toxicity on oral administration: without any toxicity
[3]
  RBC hemolysis: 75%
[4]
  antifungal activity compared with amphotericin B: much higher antifungal activity than amphotericin B

## C[C@@H]1[C@H](O)[C@@H](C)/C=C/C=C/C=C/C=C/C=C/C=C/C=C/[C@H](O[C@@H]2O[C@H](C)[C@@H](O)[C@H](N)[C@@H]2O)C[C@@H]2O[C@](O)(C[C@@H](O)C[C@@H](O)[C@H](O)CC[C@@H](O)C[C@@H](O)CC(=O)O[C@H]1C)C[C@H](O)[C@H]2C(=O)O [amphotericin B]
[5]
  persons given amphotericin B who develop decreased renal function and abnormal urine sediment: over 80%
